Results: ChEMBL document CHEMBL1144891, “Design, synthesis, and pharmacology of a highly subtype-selective GluR1/2 agonist, (RS)-2-amino-3-(4-chloro-3-hydroxy-5-isoxazolyl)propionic acid (Cl-HIBO)” (J Med Chem, 2003)

Legend:
[1] = biological target: Glutamate receptor ionotropic, kainate 2 (Homo sapiens, UniProt Q13002); experiment: Binding affinity of compound was determined towards cloned Ionotropic glutamate receptor ionotropic kainate 6 (GluR6) expressed in Sf 9 insect cells
Glutamate receptor 4 [2] = biological target: Glutamate receptor 4 (Homo sapiens, UniProt P48058); experiment: Binding affinity of compound was determined towards cloned Ionotropic glutamate receptor AMPA 4 (GluR4) expressed in Sf 9 insect cells
Chain of Glutamate receptor 4 (Homo sapiens, UniProt P48058) (P48058 whole entry): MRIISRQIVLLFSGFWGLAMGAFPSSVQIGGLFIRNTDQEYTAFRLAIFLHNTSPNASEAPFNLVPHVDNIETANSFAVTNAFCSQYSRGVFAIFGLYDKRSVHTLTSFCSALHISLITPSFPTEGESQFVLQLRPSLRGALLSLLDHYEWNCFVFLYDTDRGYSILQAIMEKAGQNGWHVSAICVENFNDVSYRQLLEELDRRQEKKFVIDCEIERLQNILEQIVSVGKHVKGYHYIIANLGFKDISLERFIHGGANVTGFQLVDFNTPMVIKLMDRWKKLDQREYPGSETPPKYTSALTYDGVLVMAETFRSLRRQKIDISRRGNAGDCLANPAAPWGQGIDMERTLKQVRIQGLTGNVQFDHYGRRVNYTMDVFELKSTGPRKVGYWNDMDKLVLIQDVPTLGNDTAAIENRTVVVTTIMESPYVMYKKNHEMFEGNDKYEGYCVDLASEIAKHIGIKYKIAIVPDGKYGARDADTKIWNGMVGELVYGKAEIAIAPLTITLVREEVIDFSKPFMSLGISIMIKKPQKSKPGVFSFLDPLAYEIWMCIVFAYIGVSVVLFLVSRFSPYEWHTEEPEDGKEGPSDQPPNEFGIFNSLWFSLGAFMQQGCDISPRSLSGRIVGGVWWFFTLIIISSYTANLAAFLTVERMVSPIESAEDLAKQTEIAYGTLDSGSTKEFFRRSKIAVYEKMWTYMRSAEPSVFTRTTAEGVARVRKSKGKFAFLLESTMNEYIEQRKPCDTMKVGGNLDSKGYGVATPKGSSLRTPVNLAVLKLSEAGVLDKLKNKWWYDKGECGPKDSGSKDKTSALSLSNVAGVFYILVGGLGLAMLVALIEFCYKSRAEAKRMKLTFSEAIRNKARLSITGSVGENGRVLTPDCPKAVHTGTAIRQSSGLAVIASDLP

Glutamate receptor 1 [3] = biological target: Glutamate receptor 1 (Mus musculus, UniProt P23818); experiment: Effective concentration of compound was determined for electrophysiological properties on […] glutamate receptor 1 using […] Xenopus laevis oocytes; type: functional, cell-based, Oocyte
Glutamate receptor 1 [4] = biological target: Glutamate receptor 1 (Homo sapiens, UniProt P42261); experiment: Binding affinity of compound was determined towards cloned Ionotropic glutamate receptor AMPA 1 (GluR1) expressed in Sf 9 insect cells
Chain of Glutamate receptor 1 (Homo sapiens, UniProt P42261) (P42261 whole entry): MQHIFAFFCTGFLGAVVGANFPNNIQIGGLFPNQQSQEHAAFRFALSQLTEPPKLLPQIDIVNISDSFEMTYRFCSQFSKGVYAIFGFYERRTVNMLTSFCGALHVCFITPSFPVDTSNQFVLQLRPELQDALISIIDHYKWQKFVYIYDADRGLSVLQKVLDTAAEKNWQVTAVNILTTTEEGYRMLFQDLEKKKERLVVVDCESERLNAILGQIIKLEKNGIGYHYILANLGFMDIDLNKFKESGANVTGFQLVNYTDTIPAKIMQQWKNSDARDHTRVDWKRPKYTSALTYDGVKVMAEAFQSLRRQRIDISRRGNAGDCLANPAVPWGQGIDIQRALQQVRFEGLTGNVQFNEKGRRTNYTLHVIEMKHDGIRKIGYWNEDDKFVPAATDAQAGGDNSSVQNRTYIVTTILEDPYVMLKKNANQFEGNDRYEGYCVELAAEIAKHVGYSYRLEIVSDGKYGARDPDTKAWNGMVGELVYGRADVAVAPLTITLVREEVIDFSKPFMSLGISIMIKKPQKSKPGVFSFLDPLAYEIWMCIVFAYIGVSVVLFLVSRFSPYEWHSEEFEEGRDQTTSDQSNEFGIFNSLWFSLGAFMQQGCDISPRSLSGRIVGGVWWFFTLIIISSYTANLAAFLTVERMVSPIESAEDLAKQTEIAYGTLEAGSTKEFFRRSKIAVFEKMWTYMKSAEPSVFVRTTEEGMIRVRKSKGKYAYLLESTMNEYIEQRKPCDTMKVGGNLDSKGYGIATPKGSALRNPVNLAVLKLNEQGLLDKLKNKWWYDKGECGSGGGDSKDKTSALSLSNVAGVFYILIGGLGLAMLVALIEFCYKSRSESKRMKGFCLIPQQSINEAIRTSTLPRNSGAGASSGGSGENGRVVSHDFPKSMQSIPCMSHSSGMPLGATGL

[5] = Neurotoxicity was determined in cultured mouse cortical neurons; type: toxicity
[6] = biological target: Glutamate receptor ionotropic, kainate 1 (Homo sapiens, UniProt P39086); experiment: Binding affinity of compound was determined towards cloned Ionotropic glutamate receptor ionotropic kainate 1 (GluR5) expressed in Sf 9 insect cells
Glutamate receptor 2 [7] = biological target: Glutamate receptor 2 (Homo sapiens, UniProt P42262); experiment: biochemical
Chain of Glutamate receptor 2 (Homo sapiens, UniProt P42262) (P42262 whole entry): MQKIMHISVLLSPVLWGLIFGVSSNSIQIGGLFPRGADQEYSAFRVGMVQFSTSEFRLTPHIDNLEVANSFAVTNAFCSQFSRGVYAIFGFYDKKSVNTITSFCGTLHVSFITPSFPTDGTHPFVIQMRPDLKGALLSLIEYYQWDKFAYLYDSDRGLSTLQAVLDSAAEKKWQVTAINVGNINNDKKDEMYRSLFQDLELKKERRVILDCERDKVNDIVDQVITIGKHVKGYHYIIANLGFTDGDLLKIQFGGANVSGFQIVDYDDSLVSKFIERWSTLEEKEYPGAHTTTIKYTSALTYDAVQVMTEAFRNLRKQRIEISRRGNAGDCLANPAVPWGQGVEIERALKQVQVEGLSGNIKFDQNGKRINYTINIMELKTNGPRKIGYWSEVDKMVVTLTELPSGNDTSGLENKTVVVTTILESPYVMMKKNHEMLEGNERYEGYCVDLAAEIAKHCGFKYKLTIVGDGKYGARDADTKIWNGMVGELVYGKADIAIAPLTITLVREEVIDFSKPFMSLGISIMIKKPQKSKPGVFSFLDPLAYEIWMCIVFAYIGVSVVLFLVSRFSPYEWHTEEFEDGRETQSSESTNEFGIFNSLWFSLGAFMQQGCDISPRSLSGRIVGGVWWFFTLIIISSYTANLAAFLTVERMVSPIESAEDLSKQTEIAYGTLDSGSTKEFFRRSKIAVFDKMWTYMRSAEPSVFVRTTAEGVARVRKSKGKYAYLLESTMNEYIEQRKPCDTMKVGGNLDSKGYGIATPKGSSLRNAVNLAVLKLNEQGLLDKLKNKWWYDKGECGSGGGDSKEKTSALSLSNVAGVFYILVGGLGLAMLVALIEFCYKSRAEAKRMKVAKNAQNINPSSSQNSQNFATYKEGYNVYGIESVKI

[8] = biological target: Glutamate receptor ionotropic, NMDA 2C (Rattus norvegicus, UniProt Q00961); experiment: Binding affinity of compound was determined against N-methyl-D-aspartate glutamate receptor, using radioligand [3H]- CGP-39653
Chain of Glutamate receptor ionotropic, NMDA 2C (Q00961 whole entry): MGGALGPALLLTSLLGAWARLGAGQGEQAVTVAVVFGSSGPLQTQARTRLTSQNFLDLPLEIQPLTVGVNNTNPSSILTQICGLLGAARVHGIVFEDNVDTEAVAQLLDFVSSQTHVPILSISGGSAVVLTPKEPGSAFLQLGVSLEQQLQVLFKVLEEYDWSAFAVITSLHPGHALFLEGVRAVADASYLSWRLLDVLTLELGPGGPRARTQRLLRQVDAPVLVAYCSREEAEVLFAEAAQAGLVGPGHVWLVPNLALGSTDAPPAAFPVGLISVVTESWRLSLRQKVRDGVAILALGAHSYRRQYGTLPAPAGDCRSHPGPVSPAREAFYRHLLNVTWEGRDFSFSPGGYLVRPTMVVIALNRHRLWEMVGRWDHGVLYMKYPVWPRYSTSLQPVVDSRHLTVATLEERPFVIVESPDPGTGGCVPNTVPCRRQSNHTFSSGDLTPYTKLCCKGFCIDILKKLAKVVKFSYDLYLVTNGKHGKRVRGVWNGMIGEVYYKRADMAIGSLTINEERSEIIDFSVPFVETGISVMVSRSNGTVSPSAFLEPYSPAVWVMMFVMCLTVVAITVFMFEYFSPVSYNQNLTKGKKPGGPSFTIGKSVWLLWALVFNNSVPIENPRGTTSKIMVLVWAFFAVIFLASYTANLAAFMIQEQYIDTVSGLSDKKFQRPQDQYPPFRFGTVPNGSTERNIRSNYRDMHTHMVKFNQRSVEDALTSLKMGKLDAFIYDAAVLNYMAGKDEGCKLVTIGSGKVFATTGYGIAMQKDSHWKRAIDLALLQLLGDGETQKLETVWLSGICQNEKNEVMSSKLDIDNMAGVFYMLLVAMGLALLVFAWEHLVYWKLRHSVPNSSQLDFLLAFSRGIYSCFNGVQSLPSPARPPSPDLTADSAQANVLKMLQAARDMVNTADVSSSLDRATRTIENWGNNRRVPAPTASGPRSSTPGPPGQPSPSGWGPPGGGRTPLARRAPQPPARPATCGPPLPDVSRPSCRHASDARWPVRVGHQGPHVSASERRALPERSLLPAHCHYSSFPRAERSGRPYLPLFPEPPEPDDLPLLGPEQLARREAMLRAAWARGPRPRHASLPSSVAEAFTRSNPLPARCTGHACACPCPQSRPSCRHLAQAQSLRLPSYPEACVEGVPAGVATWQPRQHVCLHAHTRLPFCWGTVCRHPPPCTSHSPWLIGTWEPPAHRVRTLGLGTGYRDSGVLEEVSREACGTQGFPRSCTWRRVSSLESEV

[9] = biological target: T1, Metabotropic glutamate receptor 1 (Homo sapiens, UniProt Q13255); experiment: Antagonist activity of compound at Metabotropic glutamate receptor 1 was determined; type: functional
T1 sequence (Q13255 whole entry): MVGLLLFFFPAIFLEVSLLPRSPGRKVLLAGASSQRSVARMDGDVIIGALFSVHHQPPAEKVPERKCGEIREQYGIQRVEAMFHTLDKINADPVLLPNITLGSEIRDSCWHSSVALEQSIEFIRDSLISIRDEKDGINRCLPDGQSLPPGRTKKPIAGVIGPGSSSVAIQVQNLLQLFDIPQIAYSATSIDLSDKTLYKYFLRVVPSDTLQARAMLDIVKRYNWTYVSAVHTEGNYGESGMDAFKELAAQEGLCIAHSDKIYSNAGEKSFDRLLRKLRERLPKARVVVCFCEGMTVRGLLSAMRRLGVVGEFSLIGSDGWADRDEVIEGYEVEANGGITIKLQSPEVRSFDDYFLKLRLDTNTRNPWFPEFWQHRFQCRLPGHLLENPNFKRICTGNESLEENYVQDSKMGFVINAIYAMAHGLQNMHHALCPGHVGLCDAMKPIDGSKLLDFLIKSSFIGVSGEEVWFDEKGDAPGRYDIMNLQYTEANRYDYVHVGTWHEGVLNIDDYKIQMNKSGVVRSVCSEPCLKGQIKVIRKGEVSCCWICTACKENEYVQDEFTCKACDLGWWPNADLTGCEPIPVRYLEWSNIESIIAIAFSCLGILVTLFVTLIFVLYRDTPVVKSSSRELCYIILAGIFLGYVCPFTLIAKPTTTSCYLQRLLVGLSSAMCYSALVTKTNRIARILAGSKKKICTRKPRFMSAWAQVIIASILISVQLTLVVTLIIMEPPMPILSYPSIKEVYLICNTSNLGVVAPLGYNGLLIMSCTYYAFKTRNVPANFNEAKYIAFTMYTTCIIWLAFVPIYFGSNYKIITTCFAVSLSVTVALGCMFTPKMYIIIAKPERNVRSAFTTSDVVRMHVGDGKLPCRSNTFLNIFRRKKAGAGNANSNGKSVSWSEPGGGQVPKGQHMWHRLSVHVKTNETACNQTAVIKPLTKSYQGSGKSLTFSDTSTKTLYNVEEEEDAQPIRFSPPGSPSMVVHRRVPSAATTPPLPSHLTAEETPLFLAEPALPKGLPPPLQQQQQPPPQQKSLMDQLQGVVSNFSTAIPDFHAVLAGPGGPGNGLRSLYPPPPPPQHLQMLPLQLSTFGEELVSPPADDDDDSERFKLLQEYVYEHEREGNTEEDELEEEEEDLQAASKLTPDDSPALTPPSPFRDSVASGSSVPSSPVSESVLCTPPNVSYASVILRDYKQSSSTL

[10] = biological target: T2, Glutamate receptor ionotropic, kainate 3 (Rattus norvegicus, UniProt P42264); experiment: Binding affinity of compound was determined against Ionotropic glutamate receptor ionotropic kainate, using radioligand [3H]- KA
Glutamate receptor 3 [11] = biological target: Glutamate receptor 3 (Homo sapiens, UniProt P42263); experiment: Binding affinity of compound was determined towards cloned Ionotropic glutamate receptor AMPA 3 (GluR3) expressed in Sf 9 insect cells
Glutamate receptor 2 [12] = biological target: Glutamate receptor 2 (Rattus norvegicus, UniProt P19491); experiment: Effective concentration of compound was determined for electrophysiological properties on Ionotropic glutamate receptor AMPA 2 (GluR2) using […] Xenopus laevis oocytes; type: functional, cell-based, Oocyte
Glutamate receptor 4 [13] = biological target: Glutamate receptor 4 (Rattus norvegicus, UniProt P19493); experiment: Effective concentration of compound was determined for electrophysiological properties on Ionotropic glutamate receptor AMPA 4 (GluR4) using […] Xenopus laevis oocytes; type: functional, cell-based, Oocyte
Glutamate receptor 1 [14] = biological target: Glutamate receptor 1 (Rattus norvegicus, UniProt P19490); experiment: Binding affinity of compound was determined against Ionotropic glutamate receptor AMPA receptor, using radioligand [3H]- AMPA
[15] = biological target: T2, Glutamate receptor ionotropic, kainate 3; experiment: Binding affinity of compound was determined against KA receptor, using radioligand [3H]- KA
Rattus norvegicus = species: Rattus norvegicus; experiment: Effective concentration of compound was determined for electrophysiological properties on iGluRs using rat cortical slice model in Xenopus laevis oocytes
Glutamate receptor 3 [16] = biological target: Glutamate receptor 3 (Rattus norvegicus, UniProt P19492); experiment: Effective concentration of compound was determined for electrophysiological properties on Ionotropic glutamate receptor AMPA 3 (GluR3) using […] Xenopus laevis oocytes; type: functional, cell-based, Oocyte
[17] = biological target: T1, Metabotropic glutamate receptor 1; experiment: Antagonist activity of compound at Metabotropic glutamate receptor 1 alpha was determined; type: functional

SMILES | Ki [1] [µM] | Ki (Glutamate receptor 4 [2]) [µM] | EC50 (Glutamate receptor 1 [3]) [µM] | Ki (Glutamate receptor 1 [4]) [µM] | EC50 [5] [µM] | Ki [6] [µM] | Ki (Glutamate receptor 2 [7]) [µM] | Ki [8] [µM] | Ki [9] [µM] | IC50 [10] [µM] | Ki (Glutamate receptor 3 [11]) [µM] | EC50 (Glutamate receptor 2 [12]) [µM] | EC50 (Glutamate receptor 4 [13]) [µM] | IC50 (Glutamate receptor 1 [14]) [µM] | IC50 [15] [µM] | EC50 (Rattus norvegicus) [µM] | EC50 (Glutamate receptor 3 [16]) [µM] | Ki [17] [µM]
NC(Cc1onc(O)c1Br)C(=O)O (configuration not stated) | > 100 | 11.7 | 14 | 0.17 | 16 | 4.8 | 0.25 | 34 | 329 | > 100 | 12 |  |  |  |  |  |  | 
Cc1onc(O)c1CC(N)C(=O)O [(R,S)-AMPA] |  |  |  |  | 13 |  |  |  |  |  |  |  |  |  |  |  |  | 
NC(Cc1onc(O)c1Cl)C(=O)O (configuration not stated) | > 100 | 11.9 |  | 0.13 | 27 | 6.8 | 0.37 | 18 |  |  | 27.5 | 1.7 | 1300 | 0.22 | > 100 | 39 | 2700 | 860
